Data on 4 compounds can be found in patent US9388124B2, “Ingenol-3-acylates I” (LEO LABORATORIES LIMITED, priority 2010, dated 2016).

Common to all, as to format: cell-based
For one test, the system named is HeLa cells. Briefly: Necrosis assay. Particulars: Homo sapiens, HeLa, 0.5 h, read-out: HeLa Necrosis EC50 range. The protocol:
HeLa cells (ATCC CCL-002) were grown in minimal essential medium (Invitrogen catalog no. 42360) containing 10% fetal bovine serum, 100 IU/ml penicillin and 100 μg/ml streptomycin. 4,000-6,000 cells were seeded into 96-well black ViewPlates-plates, clear bottom, (Perkin Elmer) in 100 μl medium and incubated overnight. Compounds were dissolved and pre-diluted in DMSO in 96-well polypropylene plates (Greiner) in a concentration range of 15 μM to 600 μM. At the time of the experiment cell plates were placed on heating blocks at 37° C., medium was removed and 40 μl fresh, pre-warmed medium was added per well. Cells were incubated for 15 min before addition of compounds. In parallel, 3 μl of compounds were diluted with 197 μl growth medium on a Tecan freedom-EVO pipetting station using 250 μl/s pipetting speed, in order to ensure effective mixing of the highly concentrated compound solutions with the aqueous phase. These pre-dilution plates were then equilibrated on heating blocks at 37° C. for 10 min. 80 μl pre-diluted compound were transferred manually to the corresponding wells containing HeLa cells yielding compound concentrations of 10 μM to 400 μM. Control conditions were 1% DMSO in growth medium (100% viability) and 400 μM ingenol mebutate in growth medium (0% viability). Plates were incubated on the heating blocks at 37° C. for 30 min. At the end of the incubation 10 μl PrestoBlue reagent (Invitrogen) were added to each well, plates were sealed with black seal, followed by incubation at 37° C. for 10 min with gentle shaking (150 rpm). Subsequently, plates were placed at room temperature for 20-30 min. Plates were read immediately after on an Envision Fluorescence reader (Perkin Elmer) with excitation at 535 nm and emission at 630 nm. Test compound titration curves were fitted to a four-parameter sigmoidal curve after normalizing the effect of the test compound to the effect of the positive control (4 10^−4 M PEP0005/ingenol mebutate). AbsEC50 denotes the concentration of test compound producing 50% effect.

In test [1] the test system is PMN's (polymorphonuclear leukocytes). The test can be described thus: Neutrophil oxidative burst assay. As to conditions: Leukocyte, 40 min, read-out: Neutrophil oxidative burst Rel EC50 range. On the procedure: Neutrophil Oxidative Burst Assay:
PMN's (polymorphonuclear leukocytes) were isolated and purified from fresh buffy coats by sequential sedimentation, density centrifugation and lysis of contaminating erythrocytes. Buffy coats were incubated with 2% methocel for 30-45 min to differentially sediment red blood cells. The leukocyte-rich supernatant was transferred to lymphoprep tubes to remove mononuclear cells by density centrifugation (400×g, 30 min). The pellet was resuspended and any remaining erythrocytes lysed using 0.2% NaCl for 30 sec before restoring isotonicity by the addition of 1.2% NaCl. This step was repeated until the cell pellet appears relatively free of red blood cells. Cells were resuspended in DPBS (Dulbecco's Phosphate Buffered Saline) (w.o. Ca^2+, Mg^2+) and the concentration adjusted to 1.4×10^6 cells/ml in HBSS (Hanks Balanced Salt solution) (w Ca^2+, Mg^2+) containing 0.1% BSA (Bovine Serum Albumin) and 5 mM glucose just prior to assay initiation. Titrated reference and test compounds were pre-mixed with HE (Hydroethidine) (10 μM final assay concentration) before addition to 96-well plates containing 2.5×10^5 cells. Following 40 min incubation at RT, changes in the respiratory burst was estimated by measuring fluorescence at 579 nm (excitation: 485 nm) using an Envision plate reader.
Test compound titration curves were fitted to a four-parameter sigmoidal curve after normalizing the effect of the test compound to the effect of the positive control (5×10^−7 M PEP0005). Rel EC50 denotes the concentration of test compound producing an effect that is midway between the fitted top and bottom. Abs EC50 is the concentration of test compound that provokes a response corresponding to 50% of the maximal effect associated with the positive control (5×10^−7 M PEP0005).

Test [2] concerns Primary human epidermal keratinocytes, HeKa. The test can be described thus: HeKa cytokine release (IL-8) assay. Particulars: HEKa, 6 h, read-out: HeKa cytokine release (IL-8) Rel EC50 range. The protocol: HeKa Cytokine Release (IL-8) Assay:
Primary human epidermal keratinocytes, HeKa, were seeded (10.000 cells/well) in 96-well plates the day before the assay. Test compounds were diluted in DMSO (dimethyl sulfoxide) and further diluted in assay medium and pipetted into wells of 96 well-plates containing HeKa cells. The plates were incubated for 6 h at 37° C. in humidified air with 5% CO2. Plates were centrifuged briefly to spin down cells at 4° C., the supernatant was removed and analysed by Meso Scale Discovery (MSD) 4-spot cytokine assay (Pro-inflammatory II Ultra Sensitive kit, MSD, MD, USA). The MSD assay employs a sandwich immunoassay format where capture antibodies are coated in a patterned array on the bottom of the wells of a 4-Spot-Multi-MSD plate. Standard samples were incubated in the MULTI-SPOT plates as well, and the cytokine (IL-8) binds to its corresponding capture antibody spot. The cytokine level was quantitated on a SECTOR™ Imager using a cytokine-specific Detection Antibody labelled with MSD SULFO-TAG™ reagent.
Test compound titration curves were fitted to a four-parameter sigmoidal curve after normalizing the effect of the test compound to the effect of the positive control (1.5×10^−7 M PEP0005). Rel EC50 denotes the concentration of test compound producing an effect that is midway between the fitted top and bottom.

Turning to `C=C(CC)C(=O)O[C@H]1C(C)=C[C@]23C(=O)[C@@H](C=C(CO)[C@@H](O)[C@]12O)[C@H]1[C@@H](C[C@H]3C)C1(C)C` [Compound 104, Ingenol 3-(2-methylene-butyrate)], the EC50 in the test on HeLa cells was 150000 to 350000 nM; in test [1], less than 20 nM; in test [2], 20 to 100 nM.

Turning to `CC1=C[C@]23C(=O)[C@@H](C=C(CO)[C@@H](O)[C@]2(O)[C@H]1OC(=O)/C(C)=C\c1ccc(C)cc1)[C@H]1[C@@H](C[C@H]3C)C1(C)C` [Compound 117, Ingenol 3-((Z)-2-methyl-3-(p-tolyl)prop-2-enoate)], the values for the EC50 (in the test with HeLa cells; in test [1]; in test [2]) were less than 150000 nM, less than 20 nM and less than 20 nM, respectively.

For the compound `CC1=C[C@]23C(=O)[C@@H](C=C(CO)[C@@H](O)[C@]2(O)[C@H]1OC(=O)C(C)=C(C)C)[C@H]1[C@@H](C[C@H]3C)C1(C)C` [Compound 103, Ingenol 3-(2,3-dimethyl-butenoate)], the EC50 in the test on HeLa cells was 150000 to 350000 nM; in test [1], less than 20 nM; in test [2], less than 20 nM.

Consider `CC1=C[C@]23C(=O)[C@@H](C=C(CO)[C@@H](O)[C@]2(O)[C@H]1OC(=O)C(=O)N(C)c1ccccc1)[C@H]1[C@@H](C[C@H]3C)C1(C)C` [Compound 121, Ingenol 3-(2-(methyl(phenyl)amino)-2-oxo-acetate)], for which the EC50 with HeLa cells is less than 350000 nM; in test [1], 20 to 100 nM; in test [2], greater than 100 nM.

As usually defined, the EC50 is the concentration at which the effect is half-maximal.
